The text below walks through data of patent publication US8431593B2, “Heteroaryl amide derivatives” (H. Lundbeck A/S, priority 2006, dated 2013).

The assay concerns the target T1, P2X7 receptor (Homo sapiens, UniProt Q99572).
T1 construct: host or cells: SH-SY5Y
T1 sequence (Q99572 1-595): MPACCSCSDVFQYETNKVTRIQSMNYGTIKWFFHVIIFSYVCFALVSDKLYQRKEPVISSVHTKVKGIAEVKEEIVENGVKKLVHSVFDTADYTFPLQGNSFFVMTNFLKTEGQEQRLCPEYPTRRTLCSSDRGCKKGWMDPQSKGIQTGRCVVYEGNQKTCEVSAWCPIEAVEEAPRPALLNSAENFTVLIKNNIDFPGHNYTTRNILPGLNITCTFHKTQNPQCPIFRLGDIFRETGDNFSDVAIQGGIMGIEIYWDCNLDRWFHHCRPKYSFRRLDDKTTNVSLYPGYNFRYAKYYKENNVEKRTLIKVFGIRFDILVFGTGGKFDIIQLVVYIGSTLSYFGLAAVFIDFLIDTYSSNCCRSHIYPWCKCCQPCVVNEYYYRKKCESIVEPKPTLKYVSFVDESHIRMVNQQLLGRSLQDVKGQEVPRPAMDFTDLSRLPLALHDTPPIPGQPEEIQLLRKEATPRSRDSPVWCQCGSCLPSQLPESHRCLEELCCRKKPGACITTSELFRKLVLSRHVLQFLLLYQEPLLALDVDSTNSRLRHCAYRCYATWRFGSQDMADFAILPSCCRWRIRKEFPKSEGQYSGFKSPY
The assay can be described thus: P2X7 calcium mobilization assay, high throughput, antagonist activity (Example 4A). In kind it is cell-based. The method, boiled down:
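FLIPR^TETRA calcium read-out: maximum RFU per well minus average no-agonist control, with agonist wells giving the average positive maximum. Cells seeded at 100,000/well one day ahead, dye-loaded 1 h, rinsed, then exposed to compound for 1 h at room temperature.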

The mark [1] stands for this setting: SH-SY5Y cells, 50% decrease in fluorescence response to 80 μM BzATP, read-out: IC50.

Each structure is given as a SMILES string. Like-named read-outs stand apart in the source and are kept apart here.

For `CN(CCNS(C)(=O)=O)C(=O)c1cn2c(C(=O)NCC34CC5CC(CC(C5)C3)C4)cccc2n1` [Compound 98, 5-N-(adamantan-1-ylmethyl)--methyl--{2-[(methyl-sulfonyl)amino]eth-yl)imidazo[1,2-a]pyridine-2,5-dicarboxamide], the half-inhibitory concentration (IC50) under setting [1] was < 2000 nM.

For `O=C1CN(C(=O)c2cn3c(C(=O)NCC45CC6CC(CC(C6)C4)C5)cccc3n2)CCN1` [Compound 99, N-(adamantan-1-ylmethyl)-2-[(3-oxopiperazin-1-yl)carbonyl]imidazo[1,2-a]pyridine-5-carboxamide], the IC50 under setting [1] is < 2000 nM. On the same count and under the same terms, with `COC1CCCN(C(=O)c2cn3c(C(=O)NCC45CC6CC(CC(C6)C4)C5)cccc3n2)C1` (stereo not drawn) [Compound 100, N-(adamantan-1-ylmethyl)-2-[(3-methoxypiperidin-1-yl)carbonyl]imidazo[1,2-a]pyridine-5-carboxamide] the figure was < 2000 nM; with `O=C(NCC12CC3CC(CC(C3)C1)C2)c1cccc2nc(C(=O)N3CCC(N4CCOCC4)CC3)cn12` [Compound 101, N-(adamantan-1-ylmethyl)-2-[(4-morpholin-4-ylpiperidin-1-yl)carbonyl]imidazo[1,2-a]pyridine-5-carboxamide], < 2000 nM; with `NC(=O)C1CCN(C(=O)c2cn3c(C(=O)NCC45CC6CC(CC(C6)C4)C5)cccc3n2)CC1` [Compound 102, N-(adamantan-1-ylmethyl)-2-[(4-carbamoylpiperidin-1-yl)carbonyl]imidazo[1,2-a]pyridine-5-carboxamide], < 2000 nM. On the same count and under the same terms, with `NC(=O)C1CCCN(C(=O)c2cn3c(C(=O)NCC45CC6CC(CC(C6)C4)C5)cccc3n2)C1` (stereo not drawn) [Compound 103, N-(adamantan-1-ylmethyl)-2-[(3-carbamoylpiperidin-1-yl)carbonyl]imidazo[1,2-a]pyridine-5-carboxamide] the figure was < 2000 nM; with `O=C(NCC12CC3CC(CC(C3)C1)C2)c1cccc2nc(C(=O)N3CCCC(O)C3)cn12` (stereo not drawn) [Compound 105, N-(adamantan-1-ylmethyl)-2-[(3-hydroxypiperidin-1-yl)carbonyl]imidazo[1,2-a]pyridine-5-carboxamide], < 2000 nM; with `O=C(NCC12CC3CC(CC(C3)C1)C2)c1cccc2nc(C(=O)N3CCC(O)CC3)cn12` [Compound 106, N-(adamantan-1-ylmethyl)-2-[(4-hydroxypiperidin-1-yl)carbonyl]imidazo[1,2-a]pyridine-5-carboxamide], < 2000 nM.

In the case of `O=C(NCC12CC3CC(CC(C3)C1)C2)c1cccc2nc(C(=O)N3CC(O)C3)cn12` [Compound 107, N-(adamantan-1-ylmethyl)-2-[(3-hydroxyazetidin-1-yl)carbonyl]imidazo[1,2-a]pyridine-5-carboxamide], under setting [1], the IC50 is < 2000 nM. Still for that read-out and setting: with `CC1(O)CCN(C(=O)c2cn3c(C(=O)NCC45CC6CC(CC(C6)C4)C5)cccc3n2)CC1` [Compound 108, N-(adamantan-1-ylmethyl)-2-[(4-hydroxy-4-methylpiperidin-1-yl)carbonyl]imidazo[1,2-a]pyridine-5-carboxamide] the figure was < 2000 nM; with `CC1(O)CCN(C(=O)c2cn3c(C(=O)NCC45CC6CC(CC(C6)C4)C5)cccc3n2)C1` (stereo not drawn) [Compound 112, N-(adamantan-1-ylmethyl)-2-[(3-hydroxy-3-methylpyrrolidin-1-yl)carbonyl]imidazo[1,2-a]pyridine-5-carboxamide], < 2000 nM; with `C[C@@H]1CN(C(=O)Cc2cn3c(C(=O)NCC45CC6CC(CC(C6)C4)C5)cccc3n2)CCN1` [Compound 114, N-(adamantan-1-ylmethyl)-2-{2-[(3R)-3-methylpiperazin-1-yl]-2-oxoethyl}imidazo[1,2-a]pyridine-5-carboxamide], < 2000 nM. Still for that read-out and setting: with `N[C@@H]1CCN(CCc2cn3c(C(=O)NCC45CC6CC(CC(C6)C4)C5)cccc3n2)C1` [Compound 115, 2-[2-((R)-3-amino-pyrrolidin-1-yl)-ethyl]-imidazo[1,2-a]pyridine-5-carboxylic acid (adamantan-1-ylmethyl)-amide] the figure was < 2000 nM; with `O=C(NCC12CC3CC(CC(C3)C1)C2)c1cccc2nc(CCN3CCC(O)CC3)cn12` [Compound 116, 2-[2-(4-hydroxy-piperidin-1-yl)-ethyl]-imidazo[1,2-a]pyridine-5-carboxylic acid (adamantan-1-ylmethyl)-amide], < 2000 nM; with `NC1CCN(CCc2cn3c(C(=O)NCC45CC6CC(CC(C6)C4)C5)cccc3n2)CC1` [Compound 117, 2-[2-(4-amino-piperidin-1-yl)-ethyl]-imidazo[1,2-a]pyridine-5-carboxylic acid (adamantan-1-ylmethyl)-amide], < 2000 nM.

On to `NC1CCCN(CCc2cn3c(C(=O)NCC45CC6CC(CC(C6)C4)C5)cccc3n2)C1` (stereo not drawn) [Compound 118, 2-[2-(3-amino-piperidin-1-yl)-ethyl]-imidazo[1,2-a]pyridine-5-carboxylic acid (adamantan-1-ylmethyl)-amide], for which the IC50 under setting [1] was < 2000 nM.

Take `O=C(NCC12CC3CC(CC(C3)C1)C2)c1cccc2nc(CCNC3CCNCC3)cn12` [Compound 119, 2-[2-(piperidin-4-ylamino)-ethyl]-imidazo[1,2-a]pyridine-5-carboxylic acid (adamantan-1-ylmethyl)-amide]: under setting [1], the IC50 was < 2000 nM.

On to `NC1CCN(Cc2cn3c(C(=O)NCC45CC6CC(CC(C6)C4)C5)cccc3n2)CC1` [Compound 120, N-(adamantan-1-ylmethyl)-2-[(4-aminopiperidin-1-yl)methyl]imidazo[1,2-a]pyridine-5-carboxamide], for which, under setting [1], the concentration for half-maximal inhibition (IC50) was < 2000 nM. Consider `NC1CCCN(Cc2cn3c(C(=O)NCC45CC6CC(CC(C6)C4)C5)cccc3n2)C1` (stereo not drawn) [Compound 121, N-(adamantan-1-ylmethyl)-2-[(3-aminopiperidin-1-yl)methyl]imidazo[1,2-a]pyridine-5-carboxamide], for which the IC50 under setting [1] is < 2000 nM. Take `NCCNCc1cn2c(C(=O)NCC34CC5CC(CC(C5)C3)C4)cccc2n1` [Compound 122, N-(adamantan-1-ylmethyl)-2-{[(2-aminoethyl)amino]methyl}imi-dazo[1,2-a]pyridine-5-carboxamide]: the half-inhibitory concentration (IC50) was < 2000 nM.

Consider `NCCCNCc1cn2c(C(=O)NCC34CC5CC(CC(C5)C3)C4)cccc2n1` [Compound 123, N-(adamantan-1-ylmethyl)-2-{[(3-aminopropyl)amino]methyl}imi-dazo[1,2-a]pyridine-5-carboxamide], for which the IC50 was < 2000 nM. The same measure, in the same setting: with `CNCCN(C)Cc1cn2c(C(=O)NCC34CC5CC(CC(C5)C3)C4)cccc2n1` [Compound 124, N-(adamantan-1-ylmethyl)-2-({methyl[2-(methylamino)eth-yl]amino}methyl)imi-dazo[1,2-a]pyridine-5-carboxamide] the figure was < 2000 nM; with `O=C(NCC12CC3CC(CC(C3)C1)C2)c1cccc2nc(CNCCN3CCOCC3)cn12` [Compound 125, N-(adamantan-1-ylmethyl)-2-{[(2-morpholin-4-ylethyl)amino]methyl}imi-dazo[1,2-a]pyridine-5-carboxamide], < 2000 nM; with `O=C(NCC12CC3CC(CC(C3)C1)C2)c1cccc2nc(CNCCN3CCCC3)cn12` [Compound 126, N-(adamantan-1-ylmethyl)-2-{[(2-pyrrolidin-1-ylethyl)amino]methyl}imi-dazo[1,2-a]pyridine-5-carboxamide], < 2000 nM.

The term IC50 denotes the concentration that gives 50% inhibition.
